Test results from patent EP1985629A1, “Pro-apoptotic molecules and therapeutic uses thereof” (UNIVERSITA DEGLI STUDI DI GENOVA, priority 2007, dated 2008).
Marks after values point to notes of the source that are not given here. Where a SMILES comes first, the peptide text is derived from it. [ ]: non-standard residue; d: D form. Aib = CC(C)(N)C(=O)O

Legend:
Format in all cases: cell-based, human
[1] = tested on: ALL: acute lymphoid leukaemia; test: Ex vivo bone marrow cells, flow cytometry DNA/SSC analysis of apoptosis; conditions: analysed day 4
Description: (§1) For experiments with primary cells of acute lymphoblastic leukaemia (ALL), […] Acute Myeloid Leukaemia (AML), fresh samples of bone marrow aspirates were from patients who had at least 80% blasts among their mononuclear cells. Normal hematopoietic cells (NBM) were obtained from healthy volunteers. Mononuclear cells were isolated from the samples by Ficoll density-gradient centrifugation. Primary cells were cultured as above. The collection of human specimens was performed after informed consent of the patient during diagnostic procedure. Viability was determined by Facs analysis: PI emission fluorescence.
(§2) Cells were harvested and incubated with 30 µg/ml PI (Sigma Chemical Co.) and 0.5 mg/ml RNase for 30 min at room temperature and in the dark. Flow cytometric measurements of Forward Scatter (FSC) and Side Scatter (SSC) of light emitted from the excitation laser, and of PI emission fluorescence, were performed on a FACSCalibur (Becton Dickinson) flow cytometer. At least 10,000 events were acquired on a linear scale from each sample. Frequency distributions of DNA content and SSC were analysed for the evaluation of apoptosis at different apoptotic stages and cell cycle phases, as previously described.
(§3) Bone marrow aspirates from patients with different leukaemia types were plated in tissue culture medium supplemented with 20% FCS, treated with 072RB twice every 48 h, and followed for 4 days. They were evaluated by flow cytometry DNA/SSC analysis, In Table 3 we show the percentage of [early + late apoptotic cells], according to leukaemia type and Int or 072RB dosage. To further study sensitivity to 072RB of normal cells, peripheral blood lymphocytes (PBL) isolated from four independent healthy donors were subjected to a four-days treatment with 10 µM 072RB. Treatment was performed, as usual, with two pulses at a 48 h interval. Lymphocytes were either un-stimulated or activated by PHA. […] Comparing treated and untreated normal peripheral lymphocytes, the ratio of viable cells between the two groups was 0.87 ± 0.05 (mean ± SE) for quiescent lymphocytes and 0.82 ± 0.057 for proliferating lymphocytes. This effect of 072RB on normal lymphocytes seems especially small if we consider the effects observed in leukaemia cell lines (see supplementary information), and also the effects observed in AML cells from ex vivo experiments: 0.55 ± 0.145 (mean ± SE). Table 3: Effect of 072RB on haematological malignancies (AML: acute myeloid leukaemia; ALL: acute lymphoid leukaemia; NBM: normal bone marrow): percentage of early/late apoptotic cells. Mean values from duplicate experiments are reported. The difference between the two individual values never exceeded 15% of the mean value. Ex vivo isolated cells were treated with either Int or 072RB at day 0, 2 (5, 10 µM), at day 0, 1, 2, 3 (1, 3 µM) and analysed after PI staining at day 4.

[2] = tested on: AML: acute myeloid leukaemia; test: as above; conditions: for percentage of early/late apoptotic cells: AML, analysed day 4
Description: as §1, §2, §3

NBM: normal bone marrow = test: as above; conditions: analysed day 4
Description: as §1, §2, §3

caspase 9 = test: Caspase 9 activation (FITC-LEHD-FMK, FACS analysis); conditions: 48 h
Description: The activation of caspase-9 (mitochondrial apoptosis) and caspase-3 (activated downstream of caspase-9), was evaluated in cell lines (10^6 cells/well in a 24 wells plate) incubated with different concentrations of 072RB (1, 10 µM for 24h, 48h and 72h, in complete RPMI medium + 10% FCS at 37°C, using the caspase-9 and caspase-3 Detection Kit (Calbiochem, Darmstadt, Germany). The assay utilizes LEHD-FMK or DEVD-FMK conjugated to fluorescein-isothiocyanate (FITC) as caspase-9 or caspase-3 in situ marker. FITC-LEHD-FMK and FITC-DEVD-FMK are cell permeable, non toxic, and irreversibly bind only to activated caspase-9 or -3 in apoptotic cells. Samples were run on a flow cytometer (FACSort, Becton Dickinson) equipped with an argon ion laser exiting FITC at 488nm, At least 10^5 events were analysed for each sample using the CellQuest computer program. Data are expressed as Log green fluorescence intensity (a.u.) vs cell number. Calibration was assessed with CALIBRITE particles (Becton Dickinson) using the AutoCOMP computer program.
Cells were incubated for 24, 48 and 72 h with 072RB (10 µM) or Int (10 µM), together with FITC-LEDH-FMK or FITC-DEVD-FMK, to detect caspase 9 and caspase 3 activation, respectively (FACS analysis). […] Furthermore, caspase 3, a downstream substrate of caspase 9, was progressively activated at increasing incubation times with 072RB. After 24 h of incubation 30% of U937, 35% of Namalwa, 22% of Jurkat cells, respectively, were positive for activated caspase 3; after 72 h of incubation 70% of U937, 60% of Namalwa, and 35% of Jurkat cells, respectively, had activated caspase 3. On the contrary, a negligible fraction of cells incubated with the Int peptide (1-3%), a % similar to that observed in untreated cells, expressed activated caspase 3.

[3] = ALL, Pro-B (control 32), 5 µM at day 0, 2
[4] = ALL, Pro-B (control 32), 10 µM at day 0, 2
[5] = FAB M0 (control 33), 5 µM at day 0, 2
[6] = FAB M0 (control 33), 10 µM at day 0, 2
[7] = FAB M3 (control 23), 5 µM at day 0, 2
[8] = FAB M3 (control 23), 10 µM at day 0, 2
[9] = NBM sample with control 15, treated with 15 µM (footnote *), printed in the 10 µM column
[10] = NBM sample with control 39, 10 µM at day 0, 2

| Molecule | percentage of early/late apoptotic cells [1, 3] | percentage of early/late apoptotic cells [1, 4] | percentage of early/late apoptotic cells [2, 5] | percentage of early/late apoptotic cells [2, 6] | percentage of early/late apoptotic cells [2, 7] | percentage of early/late apoptotic cells [2, 8] | percentage of early/late apoptotic cells (NBM: normal bone marrow; [9]) | percentage of early/late apoptotic cells (NBM: normal bone marrow; [10]) | fraction of cells expressing activated caspase 9 (caspase 9; Jurkat, 10 µM) | fraction of cells expressing activated caspase 9 (caspase 9; Namalwa, 10 µM) | fraction of cells expressing activated caspase 9 (caspase 9; U937, 10 µM) | other results |
| --- | --- | --- | --- | --- | --- | --- | --- | --- | --- | --- | --- | --- |
| KKWKMRRNPFWIKIQR [Int, internalisation tag, a modified Q50P 16 aa Antennapedia IIIrd α-helix, reference compound] | 32 percentage | 43 percentage | 32 percentage | 38 percentage | 26 percentage | 28 percentage | 18* percentage | 37 percentage | 1.3% | 2.0% | 1.5% | – |
| CC[C@H](C)[C@H](NC(=O)[C@H](CCCNC(=N)N)NC(=O)[C@H](CCCNC(=N)N)NC(=O)[C@H](CC(C)C)NC(=O)[C@H](CCC(=O)O)NC(=O)[C@H](CCC(N)=O)NC(=O)C(C)(C)NC(=O)[C@@H](NC(=O)[C@H](Cc1ccc(O)cc1)NC(=O)[C@@H](NC(=O)[C@H](CCC(=O)O)NC(=O)[C@@H]1CCCN1C(=O)[C@H](CCCNC(=N)N)NC(=O)[C@H](CCSC)NC(=O)[C@@H](N)CC(=O)O)[C@@H](C)CC)[C@@H](C)CC)C(=O)NCC(=O)N[C@@H](CC(=O)O)C(=O)N[C@@H](C)C(=O)N[C@@H](Cc1ccccc1)C(=O)N[C@@H](CC(N)=O)C(=O)NC(C)(C)C(=O)N[C@@H](Cc1ccc(O)cc1)C(=O)N[C@@H](CCCCN)C(=O)N[C@@H](CCCCN)C(=O)N[C@@H](Cc1c[nH]c2ccccc12)C(=O)N[C@@H](CCCCN)C(=O)N[C@@H](CCSC)C(=O)N[C@@H](CCCNC(=N)N)C(=O)N[C@@H](CCCNC(=N)N)C(=O)N[C@@H](CC(N)=O)C(=O)N1CCC[C@H]1C(=O)N[C@@H](Cc1ccccc1)C(=O)N[C@@H](Cc1c[nH]c2ccccc12)C(=O)N[C@H](C(=O)N[C@@H](CCCCN)C(=O)N[C@H](C(=O)N[C@@H](CCC(N)=O)C(=O)N[C@@H](CCCNC(=N)N)C(N)=O)[C@@H](C)CC)[C@@H](C)CC [Peptide 072RB] (H-DMRPEIYI[Aib]QELRRIGDAFN[Aib]YKKWKMRRNPFWIKIQR-NH2; N-terminus and C-terminus assumed) | 56 percentage | 63 percentage | 36 percentage | 42 percentage | 64 percentage | 82 percentage | 21* percentage | 39 percentage | 10-33% | 15-35% | 30-65% | percentage of early/late apoptotic cells ([1]; ALL sample with control 40, 5 µM at day 0, 2): 42 percentage; percentage of early/late apoptotic cells ([1]; ALL sample with control 40, 10 µM at day 0, 2): 45 percentage; percentage of early/late apoptotic cells ([1]; ALL sample with control 43, 5 µM at day 0, 2): 67 percentage; percentage of early/late apoptotic cells ([1]; ALL sample with control 52, 5 µM at day 0, 2): 60 percentage; percentage of early/late apoptotic cells ([1]; ALL sample with control 52, 10 µM at day 0, 2): 80 percentage; ratio of viable cells, treated versus untreated ([2]; AML cells from ex vivo experiments, mean ± SE): 0.55 ± 0.145; percentage of early/late apoptotic cells ([2]; FAB M0-M1 (control 14), 5 µM at day 0, 2): 22 percentage; percentage of early/late apoptotic cells ([2]; FAB M0-M1 (control 14), 10 µM at day 0, 2): 40 percentage; percentage of early/late apoptotic cells ([2]; FAB M2 (control 24), 5 µM at day 0, 2): 66 percentage; percentage of early/late apoptotic cells ([2]; FAB M4-M5 (control 50), 5 µM at day 0, 2): 75 percentage; percentage of early/late apoptotic cells ([2]; FAB M6 (control 15), 10 µM at day 0, 2): 67 percentage |
